Reference: BindingDB's records for doi:10.1021/jm015552m (Universita' Degli Studi Di Siena, 2001)

Tests used:
[1] = target: Glutamate receptor 1 (Rattus norvegicus) (UniProt P19490); experiment: The potency at recombinant rat AMPA-R was measured on GluR1 receptor expressed in Xenopus Laevis oocytes
[2] = target: Glutamate receptor 1 (Rattus norvegicus) (UniProt P19490); experiment: Binding affinity towards GluR1 receptor from rat brain

Glutamate receptor 1 (Rattus norvegicus), sequence (P19490 whole entry, looked up): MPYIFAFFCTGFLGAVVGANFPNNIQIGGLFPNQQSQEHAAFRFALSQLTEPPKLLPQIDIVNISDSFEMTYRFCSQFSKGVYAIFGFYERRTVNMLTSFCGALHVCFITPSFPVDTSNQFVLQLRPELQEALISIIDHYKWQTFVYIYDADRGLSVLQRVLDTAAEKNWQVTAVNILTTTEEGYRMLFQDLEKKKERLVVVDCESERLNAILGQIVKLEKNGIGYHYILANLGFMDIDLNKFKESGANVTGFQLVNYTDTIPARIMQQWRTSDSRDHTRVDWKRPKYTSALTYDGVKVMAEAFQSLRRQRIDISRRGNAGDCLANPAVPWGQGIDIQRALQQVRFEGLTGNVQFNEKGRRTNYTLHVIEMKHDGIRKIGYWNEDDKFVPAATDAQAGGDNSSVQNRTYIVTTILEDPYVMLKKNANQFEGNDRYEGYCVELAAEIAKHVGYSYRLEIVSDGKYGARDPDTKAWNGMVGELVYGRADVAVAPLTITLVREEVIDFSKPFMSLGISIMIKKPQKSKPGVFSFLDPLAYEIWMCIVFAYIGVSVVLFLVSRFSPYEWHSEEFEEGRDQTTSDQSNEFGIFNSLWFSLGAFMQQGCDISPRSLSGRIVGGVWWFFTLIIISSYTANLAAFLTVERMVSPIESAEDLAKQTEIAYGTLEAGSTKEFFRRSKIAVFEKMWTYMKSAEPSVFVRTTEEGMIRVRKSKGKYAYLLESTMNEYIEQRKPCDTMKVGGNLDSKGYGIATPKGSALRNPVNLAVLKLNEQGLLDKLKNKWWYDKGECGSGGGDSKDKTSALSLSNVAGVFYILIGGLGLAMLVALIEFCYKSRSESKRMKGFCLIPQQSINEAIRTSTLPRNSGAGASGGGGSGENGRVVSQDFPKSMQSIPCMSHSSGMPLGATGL

- EC50 [1]: 24.9 µM
- Ki [2]: 0.109 µM
SMILES: N[C@@H](Cn1c2c(c(=O)[nH]c1=O)CCC2)C(=O)O [2-Amino-3-(2,4-dioxo-2,3,4,5,6,7-hexahydro-cyclopentapyrimidin-1-yl)-propionic acid]
